Where a SMILES comes first, the peptide text is derived from it.
experiment: Transmission electron microscope (negative staining) of peptide assemblies; details: TEM, negative staining with uranyl acetate, 120 kV; line of the table gives 30 mM
Experimental: We used the negative staining technique to observe the morphologies formed by peptides. A micropipette was used to load 10 μL of sample solution to a carbon-coated copper grid, and we used a piece of filter paper to remove the excess solution. After rinsing the grid with the deionized water, we used uranyl acetate to stain the sample for 1 minute and then rinsed the grid with deionized water again.

| Compound | Morphology |
| --- | --- |
| CC(C)[C@H](NC(=O)[C@@H]1CCCN1)C(=O)N[C@@H](Cc1ccccc1)C(=O)N[C@@H](Cc1ccc(O)cc1)C(=O)O [PVFY] (H-PVFY-OH) | needle |
| N[C@@H](Cc1c[nH]c2ccccc12)C(=O)N[C@@H](CCC(=O)O)C(=O)N[C@@H](Cc1ccccc1)C(=O)N[C@@H](Cc1ccccc1)C(=O)O [WEFF] (H-WEFF-OH) | fibre |
| CC(C)C[C@H](N)C(=O)N[C@@H](Cc1c[nH]c2ccccc12)C(=O)N[C@@H](Cc1ccccc1)C(=O)N[C@@H](Cc1c[nH]c2ccccc12)C(=O)O [LWFW] (H-LWFW-OH) | sphere |
| N[C@@H](Cc1c[nH]c2ccccc12)C(=O)N[C@@H](Cc1ccc(O)cc1)C(=O)N[C@@H](Cc1ccccc1)C(=O)N[C@@H](Cc1ccccc1)C(=O)O [WYFF] (H-WYFF-OH) | fibre |
| N[C@@H](CS)C(=O)N[C@@H](Cc1c[nH]cn1)C(=O)N[C@@H](Cc1ccccc1)C(=O)N[C@@H](Cc1c[nH]c2ccccc12)C(=O)O [CHFW] (H-CHFW-OH) | sphere |
| CC[C@H](C)[C@H](NC(=O)[C@@H](NC(=O)[C@@H](NC(=O)[C@@H](N)CC(C)C)C(C)C)[C@@H](C)CC)C(=O)O [LVII] (H-LVII-OH) | sheet |
| CC(C)C[C@H](NC(=O)[C@H](CC(C)C)NC(=O)[C@@H](N)CCCCN)C(=O)N[C@@H](Cc1ccccc1)C(=O)O [KLLF] | particle |
| N[C@@H](CS)C(=O)N[C@@H](Cc1c[nH]c2ccccc12)C(=O)N[C@@H](Cc1ccccc1)C(=O)N[C@@H](CO)C(=O)O [CWFS] (H-CWFS-OH) | fibre |
| CSCC[C@H](NC(=O)[C@@H](N)CCSC)C(=O)N[C@H](C(=O)N[C@H](C(=O)O)C(C)C)C(C)C [MMVV] (H-MMVV-OH) | particle |

same assay, conditions: TEM, negative staining with uranyl acetate, 120 kV; line of the table gives 60 mM

| Compound | Morphology |
| --- | --- |
| CC(C)[C@H](NC(=O)[C@H](Cc1ccc(O)cc1)NC(=O)[C@H](CO)NC(=O)[C@@H](N)Cc1ccccc1)C(=O)O [FSYV] (H-FSYV-OH) | aggregates |
| CC[C@H](C)[C@H](N)C(=O)N[C@@H](Cc1ccccc1)C(=O)N[C@@H](Cc1ccc(O)cc1)C(=O)N[C@H](C(=O)O)[C@@H](C)O [IFYT] (H-IFYT-OH) | sheet |

same assay, conditions: TEM, negative staining with uranyl acetate, 120 kV; line of the table gives 90 mM

| Compound | Morphology |
| --- | --- |
| CC(C)C[C@H](NC(=O)[C@@H](N)Cc1c[nH]c2ccccc12)C(=O)N[C@H](C(=O)N[C@@H](Cc1c[nH]c2ccccc12)C(=O)O)C(C)C [WLVW] (H-WLVW-OH) | fibre |

same assay, conditions: aqueous solution or hydrogel; negative staining

| Compound | morphology by TEM (in words) |
| --- | --- |
| N[C@@H](Cc1c[nH]c2ccccc12)C(=O)N[C@@H](CCC(=O)O)C(=O)N[C@@H](Cc1ccccc1)C(=O)N[C@@H](Cc1ccccc1)C(=O)O [WEFF] (H-WEFF-OH) | entangled nanofibers |
| CC[C@H](C)[C@H](N)C(=O)N[C@@H](Cc1ccccc1)C(=O)N[C@@H](Cc1ccc(O)cc1)C(=O)N[C@H](C(=O)O)[C@@H](C)O [IFYT] (H-IFYT-OH) | interlaced nanosheets |

experiment: Peptide hydrogel formation, vial-inverting method; assay type: physicochemical; design: key to EXP / GELATION: 0: no hydrogel; 1: hydrogel; details: 30 mM peptide in ultrapure water; pH adjusted to 6.5-8.5 with 1 N NaOH, ultrasonication, standing 48 h; vial-inverting method; concentration raised 30/60/90/120 mM until gelation
Summary of the method: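 Gelation judged by vial inversion, a non-flowing self-supporting sample counting as hydrogel, after 48 h standing. Peptide in water at 30 mM first, escalating to 60, 90 and 120 mM if no gel; pH set to 6.5–8.5 by stepwise 1 N NaOH, each step sonicated briefly.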

| Compound | State |
| --- | --- |
| CC(C)[C@H](NC(=O)[C@@H]1CCCN1)C(=O)N[C@@H](Cc1ccccc1)C(=O)N[C@@H](Cc1ccc(O)cc1)C(=O)O [PVFY] (H-PVFY-OH) | gel |
| N[C@@H](Cc1c[nH]c2ccccc12)C(=O)N[C@@H](CCC(=O)O)C(=O)N[C@@H](Cc1ccccc1)C(=O)N[C@@H](Cc1ccccc1)C(=O)O [WEFF] (H-WEFF-OH) | gel |
| CC(C)C[C@H](N)C(=O)N[C@@H](Cc1c[nH]c2ccccc12)C(=O)N[C@@H](Cc1ccccc1)C(=O)N[C@@H](Cc1c[nH]c2ccccc12)C(=O)O [LWFW] (H-LWFW-OH) | gel |
| N[C@@H](Cc1c[nH]c2ccccc12)C(=O)N[C@@H](Cc1ccc(O)cc1)C(=O)N[C@@H](Cc1ccccc1)C(=O)N[C@@H](Cc1ccccc1)C(=O)O [WYFF] (H-WYFF-OH) | gel |
| N[C@@H](CS)C(=O)N[C@@H](Cc1c[nH]cn1)C(=O)N[C@@H](Cc1ccccc1)C(=O)N[C@@H](Cc1c[nH]c2ccccc12)C(=O)O [CHFW] (H-CHFW-OH) | gel |
| CC[C@H](C)[C@H](NC(=O)[C@@H](NC(=O)[C@@H](NC(=O)[C@@H](N)CC(C)C)C(C)C)[C@@H](C)CC)C(=O)O [LVII] (H-LVII-OH) | gel |
| CC(C)C[C@H](NC(=O)[C@H](CC(C)C)NC(=O)[C@@H](N)CCCCN)C(=O)N[C@@H](Cc1ccccc1)C(=O)O [KLLF] | gel |
| N[C@@H](CS)C(=O)N[C@@H](Cc1c[nH]c2ccccc12)C(=O)N[C@@H](Cc1ccccc1)C(=O)N[C@@H](CO)C(=O)O [CWFS] (H-CWFS-OH) | gel |
| CSCC[C@H](NC(=O)[C@@H](N)CCSC)C(=O)N[C@H](C(=O)N[C@H](C(=O)O)C(C)C)C(C)C [MMVV] (H-MMVV-OH) | gel |

same assay, conditions: 60 mM peptide in ultrapure water; pH 6.5-8.5 (1 N NaOH), ultrasonication, standing 48 h; vial-inverting method; no gel at 30 mM

| Compound | State |
| --- | --- |
| CC(C)[C@H](NC(=O)[C@H](Cc1ccc(O)cc1)NC(=O)[C@H](CO)NC(=O)[C@@H](N)Cc1ccccc1)C(=O)O [FSYV] (H-FSYV-OH) | gel |
| CC[C@H](C)[C@H](N)C(=O)N[C@@H](Cc1ccccc1)C(=O)N[C@@H](Cc1ccc(O)cc1)C(=O)N[C@H](C(=O)O)[C@@H](C)O [IFYT] (H-IFYT-OH) | gel |

same assay, conditions: 90 mM peptide in ultrapure water; pH 6.5-8.5 (1 N NaOH), ultrasonication, standing 48 h; vial-inverting method; no gel at lower concentrations

| Compound | State |
| --- | --- |
| CC(C)C[C@H](NC(=O)[C@@H](N)Cc1c[nH]c2ccccc12)C(=O)N[C@H](C(=O)N[C@@H](Cc1c[nH]c2ccccc12)C(=O)O)C(C)C [WLVW] (H-WLVW-OH) | gel |

same assay, conditions: concentration at which the state was recorded: lowest of 30, 60, 90, 120 mM that gave a gel; 120 mM for non-gelating peptides

| Compound | Concentration |
| --- | --- |
| CC(C)[C@H](NC(=O)[C@H](Cc1ccc(O)cc1)NC(=O)[C@H](CO)NC(=O)[C@@H](N)Cc1ccccc1)C(=O)O [FSYV] (H-FSYV-OH) | 60000 µM |
| CC(C)[C@H](NC(=O)[C@@H]1CCCN1)C(=O)N[C@@H](Cc1ccccc1)C(=O)N[C@@H](Cc1ccc(O)cc1)C(=O)O [PVFY] (H-PVFY-OH) | 30000 µM |
| N[C@@H](Cc1c[nH]c2ccccc12)C(=O)N[C@@H](CCC(=O)O)C(=O)N[C@@H](Cc1ccccc1)C(=O)N[C@@H](Cc1ccccc1)C(=O)O [WEFF] (H-WEFF-OH) | 30000 µM |
| CC(C)C[C@H](N)C(=O)N[C@@H](Cc1c[nH]c2ccccc12)C(=O)N[C@@H](Cc1ccccc1)C(=O)N[C@@H](Cc1c[nH]c2ccccc12)C(=O)O [LWFW] (H-LWFW-OH) | 30000 µM |
| N[C@@H](Cc1c[nH]c2ccccc12)C(=O)N[C@@H](Cc1ccc(O)cc1)C(=O)N[C@@H](Cc1ccccc1)C(=O)N[C@@H](Cc1ccccc1)C(=O)O [WYFF] (H-WYFF-OH) | 30000 µM |
| N[C@@H](CS)C(=O)N[C@@H](Cc1c[nH]cn1)C(=O)N[C@@H](Cc1ccccc1)C(=O)N[C@@H](Cc1c[nH]c2ccccc12)C(=O)O [CHFW] (H-CHFW-OH) | 30000 µM |
| CC[C@H](C)[C@H](NC(=O)[C@@H](NC(=O)[C@@H](NC(=O)[C@@H](N)CC(C)C)C(C)C)[C@@H](C)CC)C(=O)O [LVII] (H-LVII-OH) | 30000 µM |
| CC(C)C[C@H](NC(=O)[C@H](CC(C)C)NC(=O)[C@@H](N)CCCCN)C(=O)N[C@@H](Cc1ccccc1)C(=O)O [KLLF] | 30000 µM |
| CC[C@H](C)[C@H](N)C(=O)N[C@@H](Cc1ccccc1)C(=O)N[C@@H](Cc1ccc(O)cc1)C(=O)N[C@H](C(=O)O)[C@@H](C)O [IFYT] (H-IFYT-OH) | 60000 µM |
| CC(C)C[C@H](NC(=O)[C@@H](N)Cc1c[nH]c2ccccc12)C(=O)N[C@H](C(=O)N[C@@H](Cc1c[nH]c2ccccc12)C(=O)O)C(C)C [WLVW] (H-WLVW-OH) | 90000 µM |
| N[C@@H](CS)C(=O)N[C@@H](Cc1c[nH]c2ccccc12)C(=O)N[C@@H](Cc1ccccc1)C(=O)N[C@@H](CO)C(=O)O [CWFS] (H-CWFS-OH) | 30000 µM |
| CSCC[C@H](NC(=O)[C@@H](N)CCSC)C(=O)N[C@H](C(=O)N[C@H](C(=O)O)C(C)C)C(C)C [MMVV] (H-MMVV-OH) | 30000 µM |

same assay, conditions: hydrogel-forming peptides only; vial-inverting method

| Compound | CONCENTRATION (at which the hydrogel formed) |
| --- | --- |
| CC(C)C[C@H](N)C(=O)N[C@@H](Cc1c[nH]c2ccccc12)C(=O)N[C@@H](Cc1ccccc1)C(=O)N[C@@H](Cc1c[nH]c2ccccc12)C(=O)O [LWFW] (H-LWFW-OH) | 30000 µM |

same assay, conditions: peptide concentration 30 mM; vial-inverting method; 1 = hydrogel, 0 = no hydrogel

| Compound | GELATION |
| --- | --- |
| CC(C)[C@H](NC(=O)[C@@H]1CCCN1)C(=O)N[C@@H](Cc1ccccc1)C(=O)N[C@@H](Cc1ccc(O)cc1)C(=O)O [PVFY] (H-PVFY-OH) | 1 |
| N[C@@H](Cc1c[nH]c2ccccc12)C(=O)N[C@@H](CCC(=O)O)C(=O)N[C@@H](Cc1ccccc1)C(=O)N[C@@H](Cc1ccccc1)C(=O)O [WEFF] (H-WEFF-OH) | 1 |
| CC(C)C[C@H](N)C(=O)N[C@@H](Cc1c[nH]c2ccccc12)C(=O)N[C@@H](Cc1ccccc1)C(=O)N[C@@H](Cc1c[nH]c2ccccc12)C(=O)O [LWFW] (H-LWFW-OH) | 1 |
| N[C@@H](Cc1c[nH]c2ccccc12)C(=O)N[C@@H](Cc1ccc(O)cc1)C(=O)N[C@@H](Cc1ccccc1)C(=O)N[C@@H](Cc1ccccc1)C(=O)O [WYFF] (H-WYFF-OH) | 1 |
| N[C@@H](CS)C(=O)N[C@@H](Cc1c[nH]cn1)C(=O)N[C@@H](Cc1ccccc1)C(=O)N[C@@H](Cc1c[nH]c2ccccc12)C(=O)O [CHFW] (H-CHFW-OH) | 1 |
| CC[C@H](C)[C@H](NC(=O)[C@@H](NC(=O)[C@@H](NC(=O)[C@@H](N)CC(C)C)C(C)C)[C@@H](C)CC)C(=O)O [LVII] (H-LVII-OH) | 1 |
| CC(C)C[C@H](NC(=O)[C@H](CC(C)C)NC(=O)[C@@H](N)CCCCN)C(=O)N[C@@H](Cc1ccccc1)C(=O)O [KLLF] | 1 |
| N[C@@H](CS)C(=O)N[C@@H](Cc1c[nH]c2ccccc12)C(=O)N[C@@H](Cc1ccccc1)C(=O)N[C@@H](CO)C(=O)O [CWFS] (H-CWFS-OH) | 1 |
| CSCC[C@H](NC(=O)[C@@H](N)CCSC)C(=O)N[C@H](C(=O)N[C@H](C(=O)O)C(C)C)C(C)C [MMVV] (H-MMVV-OH) | 1 |

same assay, conditions: peptide concentration 60 mM; vial-inverting method; 1 = hydrogel, 0 = no hydrogel

| Compound | GELATION |
| --- | --- |
| CC(C)[C@H](NC(=O)[C@H](Cc1ccc(O)cc1)NC(=O)[C@H](CO)NC(=O)[C@@H](N)Cc1ccccc1)C(=O)O [FSYV] (H-FSYV-OH) | 1 |
| CC[C@H](C)[C@H](N)C(=O)N[C@@H](Cc1ccccc1)C(=O)N[C@@H](Cc1ccc(O)cc1)C(=O)N[C@H](C(=O)O)[C@@H](C)O [IFYT] (H-IFYT-OH) | 1 |

same assay, conditions: peptide concentration 90 mM; vial-inverting method; 1 = hydrogel, 0 = no hydrogel

| Compound | GELATION |
| --- | --- |
| CC(C)C[C@H](NC(=O)[C@@H](N)Cc1c[nH]c2ccccc12)C(=O)N[C@H](C(=O)N[C@@H](Cc1c[nH]c2ccccc12)C(=O)O)C(C)C [WLVW] (H-WLVW-OH) | 1 |

same assay, conditions: vial-inverting method; representative hydrogels pH between 7.0 to 7.5

| Compound | hydrogel formation (in words) |
| --- | --- |
| N[C@@H](Cc1c[nH]c2ccccc12)C(=O)N[C@@H](CCC(=O)O)C(=O)N[C@@H](Cc1ccccc1)C(=O)N[C@@H](Cc1ccccc1)C(=O)O [WEFF] (H-WEFF-OH) | hydrogels |
| CC[C@H](C)[C@H](N)C(=O)N[C@@H](Cc1ccccc1)C(=O)N[C@@H](Cc1ccc(O)cc1)C(=O)N[C@H](C(=O)O)[C@@H](C)O [IFYT] (H-IFYT-OH) | hydrogels |
